Series [1] has as its system HUVEC. As to the kind of experiment: Anti-angiogenic activity against HUVEC cells assessed as effect on SRC phosphorylation at 20 uM preincubated for 10 mins followed by VEGF addition and measured after 20 mins by western blot analysis. The note with it: Homo sapiens, time 30.0 min. The series is classed as functional, cell-based. On the technique in general: A western blot detects proteins with antibodies after separation by electrophoresis.

Series [2] has as its system HUVEC. Nature of the series: Anti-angiogenic activity against HUVEC cells assessed as decrease in ERK phosphorylation level at 20 uM preincubated for 10 mins followed by VEGF addition and measured after 20 mins by western blot analysis. Conditions: Homo sapiens, time 30.0 min. The series is classed as functional, cell-based.
Series [3] has as its system HUVEC. Nature of the series: (§1) Antiproliferative activity against HUVEC assessed as inhibition of cell growth at 20 uM measured after 24 hrs by EdU incorporation based fluorescence microscopic analysis. The format is toxicity. The note with it: human, huvec, 24 h, 20 µM.
Series [4] concerns HUVEC. Nature of the series: (§2) Antiproliferative activity against HUVEC assessed as inhibition of cell growth at 10 uM measured after 24 hrs by EdU incorporation based fluorescence microscopic analysis. The series is classed as toxicity. Conditions: human, huvec, 24 h, 10 µM.
For series [5], the system named is HUVEC. As to the kind of experiment: Anti-angiogenic activity against HUVEC cells assessed as decrease in ERK phosphorylation level at 20 uM preincubated for 10 mins followed by VEGF addition and measured after 20 mins in presence of Na3VO4 by western blot analysis. The series is classed as functional, cell-based. Conditions: Homo sapiens, time 30.0 min.
Series [6] deals with HUVEC. Nature of the series: Antiproliferative activity against HUVEC assessed as inhibition of cell growth at 100 uM measured after 24 hrs by EdU incorporation based fluorescence microscopic analysis. The note with it: human. The format is toxicity.
The subject of the next series is NCI-H522. Nature of the series: Antiproliferative activity against human NCI-H522 cells assessed as inhibition of cell growth at 10 uM. The series is classed as functional. Also on record: scale not given: the % may be the effect or the level left.
A further series deals with RPMI-8226. Nature of the series: Antiproliferative activity against human RPMI-8226 cells assessed as inhibition of cell growth at 10 uM. The format is functional. Also on record: scale not given: the % may be the effect or the level left.
Series [7] in a line: as §1. The format is toxicity. Conditions: human, HUVEC cells, read-out: Activity.
The subject of a further series is M14. As to the kind of experiment: Antiproliferative activity against human M14 cells assessed as inhibition of cell growth at 10 uM. The format is functional. Also on record: scale not given: the % may be the effect or the level left.
The next series relates to K562. Nature of the series: Antiproliferative activity against human K-562 cells assessed as inhibition of cell growth at 10 uM. The series is classed as functional. Also on record: scale not given: the % may be the effect or the level left.
The nature of series [8]: as §2. The format is toxicity. The note with it: human, HUVEC cells, read-out: Activity.
For series [9], the system named is HUVEC. As to the kind of experiment: Effect on PP1gamma expression level in HUVEC cells at 1 uM by western blot analysis. The series is classed as functional, cell-based. The note with it: Homo sapiens.
The subject of series [10] is HUVEC. Nature of the series: Effect on MAPK1 expression level in HUVEC cells at 100 uM by western blot analysis. The format is functional, cell-based. The note with it: Homo sapiens.
The subject of a further series is CCRF-CEM. Nature of the series: Antiproliferative activity against human CCRF-CEM cells assessed as inhibition of cell growth at 10 uM. The series is classed as functional. Also on record: scale not given: the % may be the effect or the level left.
The subject of another series is HL-60(TB). Nature of the series: Antiproliferative activity against human HL-60(TB) cells assessed as inhibition of cell growth at 10 uM. Also on record: scale not given: the % may be the effect or the level left. The format is functional.
For another series, the system named is SK-MEL-5. As to the kind of experiment: Antiproliferative activity against human SK-MEL-5 cells assessed as inhibition of cell growth at 10 uM. The series is classed as functional. Also on record: scale not given: the % may be the effect or the level left.
For a further series, the system named is HCT-116. As to the kind of experiment: Antiproliferative activity against human HCT-116 cells assessed as inhibition of cell growth at 10 uM. The series is classed as functional. Also on record: scale not given: the % may be the effect or the level left.
A further series concerns SK-MEL-2. Nature of the series: Antiproliferative activity against human SK-MEL-2 cells assessed as inhibition of cell growth at 10 uM. The series is classed as functional. Also on record: scale not given: the % may be the effect or the level left.

Active and inactive are the calls of the source. No cut-off for these calls is given here.

Turning to `CCCC(O)Cn1ncc(C(=O)OCC)c1NC(=O)Nc1cccc(C(F)(F)F)c1` (configuration not stated), the result in the series with HUVEC [1], with HUVEC [2] and with HUVEC [5] was inactive. In addition, the Activity result is “Non-Toxic” in the series on HUVEC [3], “Non-Toxic” with HUVEC [4] and “Toxic” in the series on HUVEC [6].
With `CCCC(O)Cn1ncc(C(=O)OCC)c1NC(=O)NCc1ccccc1F` (configuration not stated), the Activity in the series with NCI-H522 was determined as 44%.
On the same count and under the same terms, for `CCOC(=O)c1cnn(CC(O)CC)c1NC(=O)NCc1ccc(C(F)(F)F)cc1` (configuration not stated) the value was 40%; for `CCOC(=O)c1cnn(CC(O)CC)c1NC(=O)NCc1cccc(F)c1` (configuration not stated), 40%; for `CCCC(O)Cn1ncc(C(=O)OCC)c1NC(=O)NCc1ccccc1C(F)(F)F` (configuration not stated), 59%.
Turning to `CCCC(O)Cn1ncc(C(=O)OCC)c1NC(=O)NCc1cccc(C(F)(F)F)c1` (configuration not stated), the outcome with HUVEC [1] and in the series on HUVEC [5] was inactive. Moreover, the result with HUVEC [2], with HUVEC [9] and with HUVEC [10] was Active. For the same molecule, the Activity in the series with RPMI-8226 is listed as 53%; with M14, 42%; in the series with K562 it was 53%; in the series with NCI-H522 it was 54%; in the series with HUVEC [6], “Toxic”; in the series on CCRF-CEM it was 100%. Besides, the inhibition at 24 h, 20 µM in series [7] was 30%. The inhibition at 24 h, 10 µM in [8] turned out to be 20%.
On to `CCOC(=O)c1cnn(CC(C)O)c1NC(=O)NCc1ccccc1F` (configuration not stated), for which the Activity in the series with HL-60(TB) was 44%.
Take `CCOC(=O)c1cnn(CC(C)O)c1NC(=O)NCc1ccc(F)cc1` (configuration not stated): the Activity with HL-60(TB) amounted to 53%.
As to `CCCC(O)Cn1ncc(C(=O)OCC)c1NC(=O)NCc1cccc(F)c1` (configuration not stated), the outcome in the series on HUVEC [2] was inactive. The Activity result with HUVEC [3] is “Non-Toxic”; in the series on HUVEC [4], “Non-Toxic”; in the series with HL-60(TB) it was 41%; in the series on NCI-H522 it was 42%; in the series with HUVEC [6] it was “Toxic”.
For the molecule `CCOC(=O)c1cnn(CC(C)O)c1NC(=O)NCc1cccc(F)c1` (configuration not stated), in the series with CCRF-CEM, the Activity is 100%.
For `CCOC(=O)c1cnn(CC(C)O)c1NC(=O)NCc1ccccc1C(F)(F)F` (configuration not stated), the Activity in the series with HL-60(TB) was 42%.
`CCCC(O)Cn1ncc(C(=O)OCC)c1NC(=O)NCc1ccc(F)cc1` (configuration not stated): the Activity in the series with NCI-H522 is 53%.
As to `CCCC(O)Cn1ncc(C(=O)OCC)c1NC(=O)NCc1ccc(C(F)(F)F)cc1` (configuration not stated), the Activity is recorded as 74% in the series on RPMI-8226; 59% with SK-MEL-5; 65% in the series on K562; 59% in the series on HCT-116; 60% in the series on HL-60(TB); 49% in the series with SK-MEL-2. Further, the Activity is 50% in the series on NCI-H522 and 60% with CCRF-CEM.
